Data on eight compounds can be found in publication PMC12631982, “Expected and Unexpected “Guests” at the Active Site of Human Orotidine 5′-Monophosphate Decarboxylase” (Biochemistry, 2025).

Several values for one entry are separate records, joined by “and”; a condition that tells them apart may be missing. Equal entries are not always repeated. Entries after “also recorded” stand apart in the source; their conditions may differ. Where two headings read alike, the source gives them in different places.

The target of assay [1] is T1, human OMPDC (Homo sapiens, UniProt P11172).
T1 construct: Overexpression of human OMPDC in Escherichia coli; made in house; host or cells: Escherichia coli
Briefly: ITC-based steady-state kinetics / activity assay of OMPDC. The conditions noted are these: wild-type. The class given is biochemical. As for the experimental part: (§1) Steady-state kinetics of OMPDC conversion and thermodynamics of ligand binding were conducted using a PEAK-ITC instrument (Malvern Panalytical) in 20 mM HEPES/NaOH, pH 7.4, at 25 °C. The substrate OMP trisodium salt and the ligands UMP, GMP, XMP, and TMP were purchased from Sigma-Aldrich (purity >99%).
For steady-state kinetic analysis, 20 μM OMPDC and 1 mM OMP were used at a cell temperature of 25 °C. The reference power was set to 8 μcal/s, the stirring power to 750 rpm, and two injections of 10 μL each were performed. For competitive inhibition studies, the substrate concentration remained the same while the ligand concentration was varied. The experiments are summarized below:
OMPDC with OMP and 5-methyl OMP: 70/100 μM OMPDC, 1 mM OMP, 5-methyl OMP (1 mM), buffer (HEPES 0.02 M, pH 7.4), reference power ITC 8 μcal/s, stirring speed 750 rpm, cell temperature 25 °C, 2 injections of 10 μL each.
OMPDC with OMP: 20 μM OMPDC, 1 mM OMP, buffer (HEPES 0.02 M, pH 7.4), reference power ITC 8 μcal/s, stirring speed 750 rpm, cell temperature 25 °C, 2 injections of 10 μL each.
The data sets were evaluated via Microsoft Excel, and the decarboxylation rates were fitted in OriginPro 2020 according to the Hill equation.

Assay [2] addresses T1, human OMPDC. Briefly: X-ray crystallography, soaking / cocrystallization of ligands. The settings on record: wild-type, in crystallo. As to the method:
OMPDC crystals were grown for at least 3 days at 20 °C using the hanging drop diffusion method with Crystalgen SuperClear Plates (Jena Bioscience) as previously described. , The crystals were gradually transferred to increasing concentrations of cryo-solution (100 mM Tris/HCl pH 8.0, 2 M (NH4)2SO4, 10 mM glutathione pH 8.0, 0.25–1 M L-proline). After the crystals were adjusted to 1 M L-proline cryo-solution, various ligands were used for soaking experiments. […] The crystals were flash-cooled in liquid nitrogen and stored at these temperatures until the diffraction experiments were conducted.
OMPDC was also cocrystallized with XMP, UMP, and GMP. For this, a final protein concentration of 4.5 mg/mL and 25 mM ligand were used in 20 mM HEPES/NaOH, pH 7.4. The solution was mixed in a 1 + 1 ratio with the reservoir solution. Plates were stored at 20 °C, and crystals grew overnight. After 1 week, crystals were transferred to cryo-solution supplemented with 25 mM XMP/UMP/GMP. The cocrystallized crystals were flash-cooled in liquid nitrogen and stored until use.
The structures of OMPDC with the different ligands were determined by processing the diffraction data with the XDS program suite. […]

For assay [3], the target named is T2, OMPDC Thr321Asn (Homo sapiens, UniProt P11172, T321N).
T2 construct: OMPDC Thr321Asn was generated via site-directed mutagenesis; made in house
Briefly: Kinetic ITC with OMPDC variant Thr321Asn. It is filed as biochemical. As to the method: For steady-state kinetic analysis, 20 μM OMPDC and 1 mM OMP were used at a cell temperature of 25 °C. The reference power was set to 8 μcal/s, the stirring power to 750 rpm, and two injections of 10 μL each were performed. For competitive inhibition studies, the substrate concentration remained the same while the ligand concentration was varied.

Assay [4] has as its target T1, human OMPDC. Briefly: Thermodynamic ITC ligand binding to human OMPDC wild-type. The conditions noted are these: for binding detected by thermodynamic ITC: 25 °C; for ΔH (first binding phase, K D1) / ΔH (second binding phase, K D2): Sedphat analysis. As for the experimental part:
as §1
Isothermal titration calorimetry (ITC) is used to determine the dissociation constant (K D) of a protein–ligand interaction by measuring the heat released or absorbed during binding. In practice, the ligand is sequentially titrated into a solution containing the protein in the reaction cell. As the binding sites become saturated over time, no additional heat changes are detected. The resulting thermogram is then converted into a binding isotherm, which can be used to calculate all relevant thermodynamic parameters. Thereby, the (K D) follows the general reaction, where the enzyme (E), by addition of a ligand (L), forms an enzyme-ligand complex (EL) E+L↔KaEL
The following parameters for the binding experiments were used:
OMPDC with UMP: 195 μM OMPDC, 2.08 mM UMP, buffer (HEPES 0.02 M, pH 7.4), reference power ITC 8 μcal/s, stirring speed 750 rpm, cell temperature 25 °C, one injection of 0.4 μL and 18 injections of 2 μL UMP, 120 s spacing.*
OMPDC with 5-methyl OMP: 195 μM OMPDC, 4.61 mM 5-methyl OMP, buffer (HEPES 0.02 M, pH 7.4), reference power ITC 10 μcal/s, stirring speed 750 rpm, cell temperature 25 °C, 1 injection of 0.4 μL and 18 injections of 2 μL 5-methyl OMP, 120 s spacing.*
OMPDC with dTMP: 186 μM OMPDC, 5 mM dTMP, buffer (HEPES 0.02 M, pH 7.4), reference power ITC 8 μcal/s, stirring speed 750 rpm, cell temperature 25 °C, 1 injection of 0.4 μL and 18 injections of 2 μL dTMP, 120 s spacing.
OMPDC with XMP: 194 μM OMPDC, 1.5 mM XMP, buffer (HEPES 0.02 M, pH 7.4), reference power ITC 8 μcal/s, stirring speed 750 rpm, cell temperature 25 °C, 1 injection of 0.4 μL and 18 injections of 2 μL XMP 120 s spacing.*
OMPDC with YMP: 200 μM OMPDC, 2.03 mM YMP, buffer (HEPES 0.02 M, pH 7.4), reference power ITC 8 μcal/s, stirring speed 750 rpm, cell temperature 25 °C, 1 injection of 0.4 μL and 18 injections of 2 μL YMP, 120 s spacing.
OMPDC with CMP: 200 μM OMPDC, 1.80 mM CMP, buffer (HEPES 0.02 M, pH 7.4), reference power ITC 10 μcal/s, stirring speed 750 rpm, cell temperature 25 °C, 1 injection of 0.4 μL and 18 injections of 2 μL CMP, 120 s spacing.*
OMPDC with 2′-deoxy UMP: 211 μM OMPDC, 9.04 mM 2′-deoxy UMP, buffer (HEPES 0.02 M, pH 7.4), reference power ITC 10 μcal/s, stirring speed 750 rpm, cell temperature 25 °C, 1 injection of 0.4 μL and 18 injections of 2 μL 2′-deoxy UMP, 120 s spacing.
OMPDC with GMP: 184 μM OMPDC, 10 mM GMP, buffer (HEPES 0.02 M, pH 7.4), reference power ITC 8 μcal/s, stirring speed 750 rpm, cell temperature 25 °C, 1 injection of 0.4 μL and 18 injections of 2 μL GMP, 120 s spacing.
(§2) The raw files were analyzed using the software provided by the instrument manufacturer. Marked data sets (*) were integrated using NitPic version 1.2.7 and fitted with Sedphat version 14.0. Final graphs were created with OriginPro 2020.

Assay [5] addresses T2, OMPDC Thr321Asn. Briefly: Thermodynamic ITC ligand binding to OMPDC variant Thr321Asn. As to the method: as §1
OMPDC T321N′ with dTMP: 211 μM OMPDC T321N′, 2 mM dTMP, buffer (HEPES 0.02 M, pH 7.4), reference power ITC 10 μcal/s, stirring speed 750 rpm, cell temperature 25 °C, 1 injection of 0.4 μL and 18 injections of 2 μL dTMP, 120 s spacing.
as §2

The mark [6] stands for this setting: ITC at 25 °C, 20 mM HEPES pH 7.4, wild-type, single dissociation constant, read-out: K D.
Where [7] appears, read: ITC at 25 °C, wild-type, first of two dissociation constants (Sedphat analysis), read-out: K D1.
The mark [8] stands for this setting: ITC at 25 °C, wild-type, second of two dissociation constants (Sedphat analysis), read-out: K D2.

Regarding `O=C(O)c1cc(=O)[nH]c(=O)n1[C@H]1C[C@H](O)[C@@H](COP(=O)(O)O)O1` [2′-deoxy OMP], the enzymatic turnover result on human OMPDC [1] was “no binding or turnover was detected”. Moreover, the “ligand bound in crystal structure” value at human OMPDC [2] is “does not bind”. The enzymatic activity entry at OMPDC Thr321Asn [3] is listed as “too low to be reliably measured”.

As to `O=c1ccn([C@H]2C[C@H](O)[C@@H](COP(=O)(O)O)O2)c(=O)[nH]1` [2′-deoxy UMP, 2′-deoxy uridine 5′-monophosphate], the “binding detected by thermodynamic ITC” value on human OMPDC [4] (wild-type) is on record as “no binding”; at human OMPDC [4] (wild-type, listed as deoxy UMP), “No binding could be detected”.

On to `Cc1c(C(=O)O)n(C2OC(COP(=O)(O)O)C(O)C2O)c(=O)[nH]c1=O` (centres unmarked) [5-MeOMP, 5-methyl OMP], for which the Kd at human OMPDC [4] (setting [6]) was 404 nM and 400 nM. Moreover, at human OMPDC [4] (ITC at 25 °C, wild-type), the “n (stoichiometry)” value was determined as 1.54 ± 0.01, the ΔG result was “–8.78 ± 0.19 kcal/mol”, the ΔH result is given as “–1.20 ± 0.03 kcal/mol” and the “–TΔS” value is recorded as “–7.58 ± 0.26 kcal/mol”. For the same compound, at human OMPDC [1], the enzymatic turnover result is given as “unable to detect enzymatic turnover”.

`Nc1ccn([C@@H]2O[C@H](COP(=O)(O)O)[C@@H](O)[C@H]2O)c(=O)n1` [CMP, cytidine-5′-monophosphate]: at human OMPDC [4] (ITC at 25 °C, wild-type), the “ΔH (first binding phase, K D1)” value is listed as “–2.30 ± 0.08 kcal/mol” and the “ΔH (second binding phase, K D2)” value is reported as “–7.08 ± 0.56 kcal/mol”. Moreover, the Kd at human OMPDC [4] (setting [7]) was determined as 4730 ± 1090 nM. For the same compound, the Kd at human OMPDC [4] (setting [8]) was found to be 8330 ± 1060 nM.

Turning to `Nc1nc2c(ncn2[C@@H]2O[C@H](COP(=O)(O)O)[C@@H](O)[C@H]2O)c(=O)[nH]1` [GMP, guanosine-5′-monophosphate], on human OMPDC [4] (wild-type), the “binding detected by thermodynamic ITC” value was “No binding could be detected; also recorded: no measurable binding heat was detected; also recorded: did not bind at all”. The “ligand bound in crystal structure” value at human OMPDC [2] is listed as “no ligand was bound to the active site”.

Regarding `O=c1ccn([C@@H]2O[C@H](COP(=O)(O)O)[C@@H](O)[C@H]2O)c(=O)[nH]1` [UMP, uridine 5′-monophosphate], the “n (stoichiometry)” value on human OMPDC [4] (ITC at 25 °C, wild-type) was 0.98 ± 0.01. Also, the “ΔH (first binding phase, K D1)” value on human OMPDC [4] (ITC at 25 °C, wild-type) is reported as “–1.03 ± 0.06 kcal/mol”. Moreover, the “ΔH (second binding phase, K D2)” value on human OMPDC [4] (ITC at 25 °C, wild-type) was “–2.1 ± 0.1 kcal/mol”. Besides, the Kd on human OMPDC [4] (setting [7]) is 2600 ± 1200 nM; on human OMPDC [4] (setting [8]), 6700 ± 800 nM; at human OMPDC [4] (ITC, wild-type, second of two dissociation constants, read-out: Dissociation constant KD2), 6730 nM.

`O=c1[nH]c(=O)c2ncn([C@@H]3O[C@H](COP(=O)(O)O)[C@@H](O)[C@H]3O)c2[nH]1` [XMP, xanthosine-5′-monophosphate]: at human OMPDC [4] (ITC at 25 °C, wild-type), the “ΔH (first binding phase, K D1)” value is on record as “–1.86 ± 0.10 kcal/mol”. The “ΔH (second binding phase, K D2)” value at human OMPDC [4] (ITC at 25 °C, wild-type) is given as “–5.57 ± 0.07 kcal/mol”. Further, the Kd at human OMPDC [4] (setting [7]) amounted to 210 ± 30 nM; at human OMPDC [4] (setting [8]), 180 ± 20 nM; on human OMPDC [4] (ITC, wild-type, first of two dissociation constants, read-out: Dissociation constant KD1) it was 213 nM; on human OMPDC [4] (ITC, wild-type, second of two dissociation constants, read-out: K D2), 182 ± 18 nM.

For the compound `Cc1cn([C@H]2C[C@H](O)[C@@H](COP(=O)(O)O)O2)c(=O)[nH]c1=O` [dTMP, thymidine-5′-monophosphate], the Kd at OMPDC Thr321Asn [5] (ITC) came out at 431 ± 44 nM. Moreover, at OMPDC Thr321Asn [5] (ITC at 25 °C), the Kd was 430 ± 40 nM, the “n (stoichiometry)” value is 0.64 ± 0.02, the ΔG result is “–8.69 ± 0.08 kcal/mol” and the ΔH entry was “–14.3 ± 0.1 kcal/mol”. Further, the “–TΔS” value at OMPDC Thr321Asn [5] (ITC at 25 °C) came out at 5.60 ± 0.06 kcal/mol. For the same compound, the Kd at human OMPDC [4] (setting [6]) turned out to be 119000 nM. At human OMPDC [4] (ITC at 25 °C, wild-type), the “n (stoichiometry)” value worked out at 0.64 ± 0.03, the ΔG result was “–5.37 ± 0.09 kcal/mol”, the ΔH entry is listed as “–4.74 ± 0.29 kcal/mol” and the “–TΔS” value is reported as “–0.63 ± 0.88 kcal/mol”. For the same compound, at human OMPDC [4] (ITC at 25 °C, wild-type, single dissociation constant, read-out: Dissociation constant (KD)), the Kd worked out at 118000 nM.
